Measured values reported in US20060183733A1, “Treating microvasculature diseases with acetyl cholinesterase inhibitors” (priority 2005, published 2006).
“Also recorded” adds a separate entry of the source. Read-outs that look alike come from different tables or passages of the source.

Legend:
[1] = tested on: patients with GI or urinary side effects of an acetylcholinesterase inhibitor; assay: Treatment of side effects of acetylcholinesterase inhibitors (case histories); assay type: in vivo; settings: for relief of urinary side effects (polyuria, frequency): Detrol / Detrol LA 2-4 mg daily with donepizil; for relief of GI side effects (nausea, diarrhea, frequent bowel movements, cramps): metoclopramide (Reglan) 5 mg before meals and at bedtime, with an acetylcholinesterase inhibitor
Description: Metoclopramide (Reglan®) is an […].
The most extreme example of neuropathic pain arises following amputation where there is complete transection of the nerve. Pain complaints are difficult to manage with the usual combinations of anti-seizure drugs, tricyclic anti-depressants and narcotics.

[2] = tested on: patients with urinary retention; assay: Patient case histories: urinary retention (voiding trials, post void residuals); settings: for post void residuals (PVR's): before 150-200 cc
[3] = tested on: cutaneous blood flow; settings: animal models; cited from earlier work
[4] = tested on: patients with diabetic polyneuropathy; assay type: in vivo, human
Description: The symptoms of motor and sensory loss of diabetic polyneuropathy are ameliorated by acetylcholinesterase inhibitions by increasing concentration of acetylcholine, the principle neurotransmitter of the parasympathetic nervous system. By augmenting the trophic input of nerves of parasympathic nervous system; pain and dyserethesia are diminished and weakness/atrophy of muscles are diminished. The clinical observation in non-Alzheimer's patients is an improvement in motor and sensory function following treatment with effective doses of an acetylcholinesterase inhibitor. Improved blood flow within the microvascular circulation supplying the vasovasorum of the nerves produces the beneficial effect. By restoring blood flow to the vasovasorum of the nerves ischemic pain is relieved and normal function of the nerve is allowed to occur. The process of vasodilatation of the microvascular circulation is mediated through both neuronal and non-neuronal acetylcholine receptors stimulation by acetylcholine. Enhancement in acetylcholine levels is effected through treatment with acetylcholinesterase inhibitors.
The physiologic shift favoring vasoconstriction that is associated with diabetes is reversed following administration of an acetylcholinesterase inhibitor allowing perfusion of the microvasculature, restoring blood flow to ischemic motor and sensory nerves damaged by the effects of diabetes.

[5] = tested on: patients with rheumatologic conditions (RA, SLE, PMR, polymyositis); assay: Patient case histories: rheumatological conditions; assay type: in vivo, human
Description: The use of an acetylcholinesterase inhibitor raises level of acetylcholine by inhibition of cholinesterase. The Increased levels of acetylcholine stimulate neuronal receptors of the parasympathetic nervous system and non-neuronal receptors associated with the intima of blood vessels and leukocytes. This dual effect of improving flow within the microvascular circulation and stabilization of leukocytes and their adhesion to the wall of blood vessel produces the anti-inflammatory effect that is observed with the use of an acetylcholinesterase inhibitor for treatment of rheumatologic diseases.

[6] = tested on: patients with peripheral vascular disease and diabetes mellitus; assay: Patient case histories: microvascular disease / vascular insufficiency; assay type: in vivo, human; settings: galantamine 4-8 mg two to four times daily
Description: In summary, vascular insufficiency from diabetes is associated with compromise of the microvascular circulation. Treatment with an effective dose of an acetylcholinesterase inhibitor raises the relative concentration of acetylcholine promoting vasodilitation of the microcirculation (end arterioles) through stimulation of neuronal and non-neuronal acetylcholine receptors in the intima of the blood vessels. The beneficial effects of promoting vasodilitation and enhanced tissue perfusion correcting the dystrophic changes and alleviating ischemic pain and ulcers is readily apparent in this series of patients.
The present invention provides a method for the medical management of peripheral vascular disease. The management of peripheral vascular disease with acetylcholinesterase inhibitor addresses the central dilemma in vascular perfusion of the lower extremities. By increasing the relative concentration of acetylcholine, the parasympthetic nervous system is enhanced, improving blood flow at the tissue level by relaxation of the small end arterioles and improving perfusion therefore decreasing vascular edema, enhancing resolution of trohpic ulcers and alleviating rest pain and claudication complaints. The parasympathetic nervous system controls vascular beds in the small arterioles and by increasing the available acetylcholine, dilatation occurs and blood flow improves. By treatment with acetylcholinesterase inhibitors the end results in improved vascular blood supply, decreased congestion at the small arterioles level and improved blood supply. This is particularly necessary in diabetic patients. The presence of non-neuronal acetylcholine receptors with the intima of blood vessels at the microvascular level represents a second physiologic mechanism whereby dilatation of small blood vessels is facilitated by the use of an acetylcholinesterase inhibitor. This latter mechanism owing to the sensitive nature of the cholinesterases associated with the non neuronal acetylcholine system provides sustained cholinergic activity impacting the microvascular circulation and improving perfusion at the critical end arteriole-capillary-venule level.

[7] = tested on: patients with lymphedema; assay type: in vivo, human
Description: The improvement in perfusion within the small arterioles decreases the hydrostatic pressure at the end arterioles and therefore reduces interstitial fluid accumulation that impedes the return of lymph fluid within the lymphatic vessels. The physics model for this phenomenon makes use of Bernouli's equation and its relationship to a Venturi tube. Hydrostatic pressure proximal to a relative stricture creates a pressure gradient that leads to increased transudation that overwhelms the capacity of the lymphatic system to manage. The vasodilatory effects of the parasympathetic nervous system upon small arterioles produces improved perfusion and lessens the accumulation of lymphedema. A common example of lymphedema occurs following joint replacement surgery with swelling that persists for three to six months and sometimes permanently. Lymphedema following joint replacement surgery slows recovery and creates pain while predisposing to deep vein thrombosis and infection.

[8] = tested on: patients with phantom pain; assay: Patient case histories: phantom pain following amputation; assay type: in vivo, human
Description: The present invention further provides a method of treating phantom pain following amputation in both upper and lower extremities. “Phantom pain” is a phenomenon described following amputation of either an upper or lower extremity. The sensation is common following amputation and present with varying degrees of discomfort and debility. A patient with phantom pain is typically treated with antidepressants, Neurontin® (gabapeninand) narcotics to a varying degree. The use of acetylcholinesterase inhibitors decreases the need for narcotics and generally eliminates the need for poly pharmacy improving pain, enhancing wound healing and improved sleep pattern in amputee patients. The dose of acetylcholinesterase inhibitor is titrated to GI (gastrointestinal) tolerance with bowel movement consistency and frequency the determining factors. Treatment with acetylcholinesterase inhibitor increases the available acetylcholine which is the neurotransmitter responsible for activation of the parasysmpathic nervous system appear responsible for Noxious symptoms of phantom pain for discomfort. The present invention provides a method of treating phantom pain associated with amputation of either upper or lower extremity.

[9] = tested on: patients with Multiple Sclerosis; assay type: in vivo, human; settings: galantamine 4 mg orally three times daily, foley catheter removed 48 hours later
Description: The present invention provides an acetylcholinesterase inhibitor to increase the relative concentration of […] within the central nervous system to improve parasympathetic neural transmission and combat the features of M. S. that often present in a craniosacral distribution. Cranial symptoms include mental status changes, emotional lability as well as optic dysfunction and nystgmus. Cranial nerves that control extracular muscles are also affected. Cranial involvement can also manifest as swallowing problems with frank dysphagia. The sacral manifestations of parasympathic dysfunction relate to bowel and bladder control. The symptoms of spastic bladder, urinary retention and constipation are relieved by treatment with an Acetylcholinesterase inhibitor raising the concentrations of acetylcholine to enhance the neural transmission of the parasympathetic nervous system to facilitate normal bowel and bladder function. The craniosacral manifestations of M.S. are reflected in dysfunctional neural transmission associated with the parasympathetic nervous system and can be ameliorated or corrected by treatment with an acetylcholinesterase inhibitor. Improved blood flow within the vasovasorum of the myelin sheath/nerve is also considered useful in amelioration of MS symptoms. […]

[10] = tested on: patients with chronic renal insufficiency; assay: Patient case histories: chronic renal insufficiency (serum creatinine, BUN); assay type: in vivo, human; settings: galantamine 4 mg orally three times daily
Description: To postpone or avoid the sequelae of chronic renal insufficiency, treatment with acetylcholinesterase inhibitors increase the concentration of acetycholine available to promote blood flow to the renal cortex preventing loss of nephrons and allowing existing renal parenchyma to provide the vital function of the kidney. Just as parasympathetic outflow provide homeostatic neural input to the elimination of function of the intestine, the same parasympathetic innervation provides vasodilatation of the small arterioles supplying the cortex of the kidneys allowing for optimal functioning.

[11] = tested on: patients with neuropathic pain; settings: rivastigmine test dose
[12] = tested on: regional blood flow in the brain; settings: PET scanning; Alzheimer's patients and normal subjects; cited from earlier work
[13] = tested on: patients with Parkinson's disease; settings: rivastigmine 1.5-3 mg twice daily
[14] = tested on: patients with myofascial pain / fibromyalgia; assay: Patient case histories: fibromyalgia / myofascial pain syndrome; assay type: in vivo, human
Description: The present invention provides a method for treating fibromyalgia and myofascial pain syndrome by increasing tissue levels of acetylcholine. Acetylcholine is the neurotransmitter of the parasympathic nervous system. The inventive method increases the relative amount of parasympathetic transmission and thereby facilitates resolution of the pain areas and diminishes the need for narcotics and polypharmacy. The reduction in the use of narcotics, NSAIDs, and tricyclic antidepressants and other medications used for pain having their deleterious side effects is a major benefit. By administration of acetyl cholinesterase inhibitor, the relative concentrations of acetylcholine are increased and available to propagate the impulses of the parasympathic nervous systems and within the non-neuronal acetylcholine receptors diminishing pain and spasms. […] The influence of non-neuronal acetylcholine receptors affected by enhanced levels of acetylcholine produces a reduction in pro-inflammatory mediators and increased blood flow to the nerve fibers involved in pain transmission. The net effect is a reduction in inflammation and improved blood flow to the vasovasorum of the affected nerves reducing the painful sensations.

[15] = rivastigmine 1.5 mg twice daily

## Cc1ccc(O)c([C@H](CCN(C(C)C)C(C)C)c2ccccc2)c1 [Detrol LA, tolterodine]
[1]
  relief of urinary side effects (polyuria, frequency): prompt reduction in their urinary frequency; also recorded: able to tolerate this regimen
[1]; listed as Detrol
  relief of urinary side effects (polyuria, frequency): treated successfully

## CCOc1ccccc1OCCN[C@H](C)Cc1ccc(OC)c(S(N)(=O)=O)c1 [Flomax]
[2]; Flomax 0.4 mg, then 0.8 mg, residuals in excess of 300 cc's before
  voiding trial: first voiding trial was unsuccessful; also recorded: second voiding trial was also unsuccessful

## CC(=O)OC(C)C[N+](C)(C)C (stereo not shown) [Methacholine]
[3]
  cutaneous blood flow and skin temperature: increases cutaneous blood flow and skin temperature

## CCN(CC)CCNC(=O)c1cc(Cl)c(N)cc1OC [Reglan, metoclopramide]
[1]
  relief of GI side effects (nausea, diarrhea, frequent bowel movements, cramps): able to continue treatment with donepizil; also recorded: prompt resolution of their GI complaints; also recorded: prompt relief of their GI complaints; also recorded: treated successfully
[1]; listed as metoclopramide
  relief of GI side effects (nausea, diarrhea, frequent bowel movements, cramps): easily managed; also recorded: ameliorated or eliminated

## COc1ccc2c3c1O[C@H]1C[C@@H](O)C=C[C@@]31CCN(C)C2 [galantamine]
[4]; galantamine titrated to 8 mg TID (a person)
  improvement in Left foot drop: 80-85%
[5]; galantamine 4-8 mg three times daily
  side effects: no adverse side effects of diarrhea or nausea
[2]; galantamine 4 mg orally three times daily
  post void residuals (PVR's): under 100 cc
[2]; galantamine 4 mg three times daily to 8 mg two or three times daily
  side effects: no untoward side effects; also recorded: mild nausea (without emesis)
[2]; galantamine 8 mg orally twice daily
  post void residuals (PVR's): ~50 cc
[6]
  side effects: No symptoms of diarrhea or gastroesophageal reflux disease (GERD) were reported; also recorded: no untoward side effects
[7]; galantamine 4 mg orally three times daily, asthma patient
  side effects: without compromise of their pulmonary condition
[8]; galantamine 4 mg BID titrated to four times a day
  side effects: without nausea/vomiting or GI upset
[8]; galantamine 8 mg BID over two weeks, before: 5 tablets per day
  use of Oxycodone/APAP: 2-3 tablets per week
[9]
  post void residuals: < 100 cc
[10]; before treatment 1.8
  serum creatinine: 1.4
[10]; before treatment 32
  BUN (blood urea nitrogen): 21

## CCN(C)C(=O)Oc1cccc([C@H](C)N(C)C)c1 [rivastigmine]
[4]; drug stopped after initial improvement
  course after the drug was withdrawn or lapsed: complaints of weakness and loss of ambulatory ability
[5]; rivastigmine 1.5 mg orally twice daily, Rheumatoid Arthritis flair-up
  clinical outcome (swelling, warmth, pain): signs of swelling and warmth improved but the patient still had complaints of pain
[5]; rivastigmine 3 mg orally twice daily, Rheumatoid Arthritis flair-up
  clinical outcome (pain, swelling): pain symptoms resolved within a day; also recorded: concomitant improvement in their lower extremity swelling
[5]; rivastigmine 1.5-3 mg twice daily
  side effects: no adverse side effects such as dyspepsia, diarrhea or polyuria
[5]; rivastigmine lower dose for prophylaxis, three month
  recurrence under prophylaxis: no recurrence of pain or swelling
[7]; [15]
  side effects: no ill side effects
[11]
  clinical outcome (phantom pain): notable improvement in their phantom pain within one hour
[12]
  regional blood flow in the brain / CNS structures: Regional blood flow is increased; also recorded: improve blood flow to CNS structures; also recorded: improve regional blood flow in the brain
[13]
  side effects: no negative side effects
[14]; rivastigmine
  side effects: no ill effects; also recorded: no adverse side effects
[14]; [15]
  clinical outcome (pain): significant improvement; also recorded: greater control of their pain
[14]; rivastigmine 3 mg twice daily
  clinical outcome (pain): near complete alleviation in their pain; also recorded: pain symptoms became less frequent
[14]; rivastigmine 4 mg orally twice daily titrated upward to 8 mg three times daily
  clinical outcome (narcotic use): use of narcotics was completely eliminated
